Experimental data from patent publication US9655887B2, “Pharmaceutical composition and the use thereof, and application regime of said pharmaceutical composition for on-demand contraception” (BAYER PHARMA AKTIENGESELLSCHAFT, priority 2013, dated 2017).

The compounds below were run against EP2 subtype of the human PGE2 receptor (hEP2 receptor) (Homo sapiens, UniProt P43116) (assay: cAMP antagonism test, human prostaglandin E2 (subtype EP2) receptor signal).
Assay type: cell-based
Excerpt: 1. Detection of Antagonism to the Human Prostaglandin E2 (Subtype EP2) Receptor Signal
The binding of PGE2 to the EP2 subtype of the human PGE2 receptor induces the activation of membrane-located adenylate cyclases and leads to the formation of cAMP. In the presence of the phosphodiesterase inhibitor IBMX, the cAMP accumulated owing to this stimulation and released by cell lysis is used in a competitive detection method. In this test, the cAMP present in the lysate competes with a fluorescence-labelled cAMP (cAMP-d2) for binding to an Eu cryptate-labelled anti-cAMP antibody.
In the absence of cellular cAMP, a maximal signal is produced, which is attributable to the binding of this cAMP-d2 molecule to the antibody. After excitation of the […] at 337 nm, there is a fluorescence resonance energy transfer (FRET) to the Eu cryptate molecules of the anti-cAMP antibody (labelled therewith), followed by a long-lasting emission signal at 665 nm (and at […]). Both signals are measured in a suitable measurement instrument with a time delay, i.e. after decay of the background fluorescence. Any increase in the low FRET signal caused by prostaglandin E2 administration (measured as well ratio change=emission665nm/emission620nm*10000) indicates the action of antagonists.
1.2.1. Test for Antagonism (Data Per Well of a 384-Well Plate):
To a test plate with the substance solutions already added (0.05 μl; 100% DMSO, concentration range from 0.8 nM-16.5 nM) were added 4 μl of a cAMP-d2/cell suspension (625000 cells/ml). After a 20-minute preincubation at room temperature (RT), 2 μl of a 3×PGE2 solution (1.5 nM, in PBS-IBMX) were added and incubated in the presence of the agonist for a further 60 mins at RT (volume: […]). Next the reaction was stopped by addition of 2 μl of lysis buffer and incubated for a further 20 mins at RT before the actual measurement (volume: ˜8 μl).

Sequence of EP2 subtype of the human PGE2 receptor (hEP2 receptor) (P43116 whole entry): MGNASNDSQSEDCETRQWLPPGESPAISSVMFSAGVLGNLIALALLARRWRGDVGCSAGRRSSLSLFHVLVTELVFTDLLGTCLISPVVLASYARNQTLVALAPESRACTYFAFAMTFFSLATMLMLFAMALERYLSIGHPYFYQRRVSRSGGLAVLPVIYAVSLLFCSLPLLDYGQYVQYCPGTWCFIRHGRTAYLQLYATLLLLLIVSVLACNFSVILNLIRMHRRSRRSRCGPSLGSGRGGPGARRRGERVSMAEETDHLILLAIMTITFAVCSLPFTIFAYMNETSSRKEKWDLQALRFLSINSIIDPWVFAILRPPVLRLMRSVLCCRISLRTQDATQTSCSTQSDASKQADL

Row | SMILES | IC50
1 | Cc1ccc(C(=O)N2CCC(Cn3cc4c(C)c(C(=O)NCCOC(C)C)ccc4n3)CC2)cc1 [Example E72, N-(2-isopropoxyethyl)-4-methyl-2-{[1-(4-methylbenzoyl)piperidin-4-yl]methyl}-2H-indazole-5-carboxamide] | > 50 nM
2 | Cc1c(C(=O)NCCOCC(F)(F)F)ccc2nn(CC3CCN(C(=O)c4ccc(C(F)(F)F)cc4)CC3)cc12 [Example E68, 4-methyl-N-[2-(2,2,2-trifluoroethoxy)ethyl]-2-({1-[4-(trifluoromethyl)benzoyl]-piperidin-4-yl}methyl)-2H-indazole-5-carboxamide] | > 50 nM
3 | COCCNC(=O)c1ccc2nn(CC3CCN(C(=O)c4ccc(S(F)(F)(F)(F)F)cc4)CC3)cc2c1C [Example E11, N-(2-methoxyethyl)-4-methyl-2-({1-[4-(pentafluoro-λ^6-sulphanyl)benzoyl]piperidin-4-yl}methyl)-2H-indazole-5-carboxamide] | > 50 nM
4 | COCCNC(=O)c1ccc2nn(CC3CCN(C(=O)c4ccc(-c5cc(F)cc(F)c5)c(C)c4)CC3)cc2c1C [Example E204, 2-({1-[(3′,5′-difluoro-2-methylbiphenyl-4-yl)carbonyl]piperidin-4-yl}methyl)-N-(2-methoxyethyl)-4-methyl-2H-indazole-5-carboxamide] | > 50 nM
5 | COCCNC(=O)c1ccc2nn(CC3CCN(C(=O)c4ccc(Cl)cc4)CC3)cc2c1C [Example E54, 2-{[1-(4-chlorobenzoyl)piperidin-4-yl]methyl}-N-(2-methoxyethyl)-4-methyl-2H-indazole-5-carboxamide] | > 50 nM
6 | COCCNC(=O)c1ccc2nn(CC3CCN(C(=O)c4ccc(Oc5ccc(C#N)cc5)cc4)CC3)cc2c1C [Example E153, 2-({1-[4-(4-cyanophenoxy)benzoyl]piperidin-4-yl}methyl)-N-(2-methoxyethyl)-4-methyl-2H-indazole-5-carboxamide] | > 50 nM
7 | COCCNC(=O)c1ccc2nn(CC3CCN(C(=O)c4ccc(-c5cccnc5)c(C)c4)CC3)cc2c1C [Example E205, N-(2-methoxyethyl)-4-methyl-2-({1-[3-methyl-4-(3-pyridyl)benzoyl]piperidin-4-yl}-methyl)-2H-indazole-5-carboxamide] | > 50 nM
8 | COCCNC(=O)c1ccc2nn(CC3CCN(C(=O)c4ccc(OC(C)(C)C)cc4)CC3)cc2c1C [Example E2, 2-{[1-(4-tert-butoxybenzoyl)piperidin-4-yl]methyl}-N-(2-methoxyethyl)-4-methyl-2H-indazole-5-carboxamide] | > 50 nM
9 | COCCNC(=O)c1ccc2nn(CC3CCN(C(=O)c4ccc(-c5ccc(C(F)(F)F)cc5)cc4)CC3)cc2c1C [Example E173, N-(2-methoxyethyl)-4-methyl-2-[(1-{[4′-(trifluoromethyl)biphenyl-4-yl]carbonyl}-piperidin-4-yl)methyl]-2H-indazole-5-carboxamide] | > 50 nM
10 | COCCNC(=O)c1ccc2nn(CC3CCN(C(=O)c4ccc(-c5ccc(F)cc5F)cc4)CC3)cc2c1C [Example E46, 2-({1-[(2′,4′-difluorobiphenyl-4-yl)carbonyl]piperidin-4-yl}methyl)-N-(2-methoxy-ethyl)-4-methyl-2H-indazole-5-carboxamide] | > 50 nM
11 | COCCNC(=O)c1ccc2nn(CC3CCN(C(=O)c4ccc(Oc5ccc(C)cc5)cc4)CC3)cc2c1C [Example E14, N-(2-methoxyethyl)-4-methyl-2-({1-[4-(4-methylphenoxy)benzoyl]piperidin-4-yl}-methyl)-2H-indazole-5-carboxamide] | > 50 nM
12 | COCCNC(=O)c1ccc2nn(CC3CCN(C(=O)c4ccc(Oc5ccc(Cl)cc5)cc4)CC3)cc2c1C [Example E13, 2-({1-[4-(4-chlorophenoxy)benzoyl]piperidin-4-yl}methyl)-N-(2-methoxyethyl)-4-methyl-2H-indazole-5-carboxamide] | > 50 nM

More lines, now with the values ahead:

Row | IC50 | SMILES
13 | > 50 nM | COCCNC(=O)c1ccc2nn(CC3CN(C(=O)c4ccc(SC(F)(F)F)cc4)C3)cc2c1C [Example E88, N-(2-methoxyethyl)-4-methyl-2-[(1-{4-[(trifluoromethyl)sulphanyl]benzoyl}azetidin-3-yl)methyl]-2H-indazole-5-carboxamide]
14 | > 50 nM | COCCNC(=O)c1ccc2nn(CC3CCN(C(=O)c4ccc(-c5ccc(F)cc5)cc4)CC3)cc2c1C [Example E5, 2-({1-[(4′-fluorobiphenyl-4-yl)carbonyl]piperidin-4-yl}methyl)-N-(2-methoxyethyl)-4-methyl-2H-indazole-5-carboxamide]
15 | > 50 nM | COCCNC(=O)c1ccc2nn(CC3CCN(C(=O)c4ccc(-c5ccccc5F)cc4)CC3)cc2c1C [Example E45, 2-({1-[(2′-fluorobiphenyl-4-yl)carbonyl]piperidin-4-yl}methyl)-N-(2-methoxyethyl)-4-methyl-2H-indazole-5-carboxamide]
16 | > 50 nM | Cc1c(C(=O)NCCOC(C)C)ccc2nn(CC3CCN(C(=O)c4ccc(C5CC5)cc4)CC3)cc12 [Example E76, 2-{[1-(4-cyclopropylbenzoyl)piperidin-4-yl]methyl}-N-(2-isopropoxyethyl)-4-methyl-2H-indazole-5-carboxamide]
17 | > 50 nM | COCCNC(=O)c1ccc2nn(CC3CCN(C(=O)c4ccc(C5CC5)cc4)CC3)cc2c1C [Example E19, 2-{[1-(4-cyclopropylbenzoyl)piperidin-4-yl]methyl}-N-(2-methoxyethyl)-4-methyl-2H-indazole-5-carboxamide]
18 | > 50 nM | COCCNC(=O)c1ccc2nn(CC3CN(C(=O)c4ccc(Oc5ccc(F)cc5)cc4)C3)cc2c1C [Example E109, 2-({1-[4-(4-fluorophenoxy)benzoyl]azetidin-3-yl}methyl)-N-(2-methoxyethyl)-4-methyl-2H-indazole-5-carboxamide]
19 | > 50 nM | Cc1c(C(=O)NCCOCC2CC2)ccc2nn(CC3CN(C(=O)c4ccc(Cl)cc4)C3)cc12 [Example E102, 2-{[1-(4-chlorobenzoyl)azetidin-3-yl]methyl}-N-[2-(cyclopropylmethoxy)ethyl]-4-methyl-2H-indazole-5-carboxamide]
20 | > 50 nM | COCCNC(=O)c1ccc2nn(CC3CCN(C(=O)c4ccc(Oc5ccc(F)cc5F)cc4)CC3)cc2c1C [Example E171, 2-({1-[4-(2,4-difluorophenoxy)benzoyl]piperidin-4-yl}methyl)-N-(2-methoxyethyl)-4-methyl-2H-indazole-5-carboxamide]
21 | > 50 nM | COCCNC(=O)c1ccc2nn(CC3CCN(C(=O)c4ccc(C#N)cc4)CC3)cc2c1C [Example E31, 2-{[1-(4-cyanobenzoyl)piperidin-4-yl]methyl}-N-(2-methoxyethyl)-4-methyl-2H-indazole-5-carboxamide]
22 | > 50 nM | Cc1c(C(=O)NCCOCC2CC2)ccc2nn(CC3CCN(C(=O)c4ccc(C5CC5)cc4)CC3)cc12 [Example E64, 2-{[1-(4-cyclopropylbenzoyl)piperidin-4-yl]methyl}-N-[2-(cyclopropylmethoxy)ethyl]-4-methyl-2H-indazole-5-carboxamide]
23 | > 50 nM | COCCNC(=O)c1ccc2nn(CC3CCN(C(=O)c4cccc(Cl)c4)CC3)cc2c1C [Example E27, 2-{[1-(3-chlorobenzoyl)piperidin-4-yl]methyl}-N-(2-methoxyethyl)-4-methyl-2H-indazole-5-carboxamide]
